In assay [1] the test system is duodenal Cck cells. As to the kind of experiment: Vagal recording with intraluminal 532 nm laser silencing of duodenal Cck (neuropod) cells. Format: in vivo. The settings on record: Cck_Halo mice; sucrose 300 mM, α-mgp 150 mM, sucralose 15 mM. The procedure:
FIG. 9. Model: intraluminal 532 nm laser activates NpH3 chloride channels to silence duodenal Cck cells in CckCRE_NpH3 mice.
Using whole nerve electrophysiology of the cervical vagus nerve, it was confirmed that vagal activity increases in the presence of luminal sugars. Kaelberer et al., Science 361 (6408) (2018). The proximal duodenum was perfused with sugars, thus bypassing any gustatory or gastric activation. Sugars were tested based on the following properties: both caloric content and sweet taste (sucrose [300 mM], D-glucose [150 mM], fructose [150 mM], galactose [150 mM]), calorie-only (maltodextrin [8%], alpha-methylglucopyranoside (α-MGP) [150 mM]), or taste-only (sucralose [15 mM], acesulfame-K [15 mM], saccharin [15 mM]) (FIG. 1, FIG. 2, FIG. 3, FIG. 4). […] Intraluminal application of the 532 nm laser eliminated the vagal response to sucrose [300 mM], α-mgp [150 mM], and sucralose [15 mM] (n ≥ 5, p < 0.001) (FIG. 10 and FIG. 11; laser activation and wild-type controls). Thus, neuropod cells are required to sense both the calorie and taste properties of sugar and communicate these signals onto vagal neurons.
Cck neuropod cells in the duodenum express receptors for fatty acids (FIG. 69), analyzed by bulk sequencing Cck-positive and Cck-negative epithelial cells in the duodenum of CckGFP mice. Thus, CCK cells in the duodenum may signal the presence of fatty acids to the vagus nerve. To test this, the silencing optogenetic channel was expressed in Cck cells of mice. […] In the duodenum, there is overlap in cells expressing CCK and the vesicular glutamate transporter 1 (Vglut1), required for release of the neurotransmitter glutamate. To test whether glutamate is required as a signaling molecule for fat transduction to the vagus nerve, a cocktail of glutamate receptor inhibitors was perfused through the duodenum of wild type mice. Blockade of ionotropic and metabotropic glutamate receptors blocked vagal firing elicited by glutamate (FIG. 71). […] In an initial baseline test, mice freely explore an arena for 20 minutes, during which their position in the arena measured. […]

Assay [2] concerns cervical vagus nerve. As to the kind of experiment: Whole nerve electrophysiology of the cervical vagus during duodenal sugar perfusion. Format: in vivo, mice. To be noted: wild-type mice; sucrose 300 mM, D-glucose 150 mM, fructose 150 mM, galactose 150 mM, maltodextrin 8%, α-MGP 150 mM, sucralose 15 mM, acesulfame K 15 mM, saccharin 15 mM. The protocol: FIG. 1. […] Model: sugars are perfused into the duodenal lumen while nerve activity is recorded from the cervical vagus of anesthetized wild-type mice.
The proximal duodenum was perfused with sugars, thus bypassing any gustatory or gastric activation. Sugars were tested based on the following properties: both caloric content and sweet taste (sucrose [300 mM], D-glucose [150 mM], […], galactose [150 mM]), calorie-only (maltodextrin [8%], alpha-methylglucopyranoside (α-MGP) [150 mM]), or taste-only (sucralose [15 mM], acesulfame-K [15 mM], saccharin [15 mM]) (FIG. 1, FIG. 2, FIG. 3, FIG. 4).

Assay [3] deals with nodose neurons co-cultured with Cck_tdTomato+ cells. As to the kind of experiment: Patch-clamp electrophysiology of nodose neurons co-cultured with Cck_tdTomato+ cells. Format: cell-based. To be noted: D-glucose 20 mM, sucralose 2 mM; for peak excitatory post-synaptic currents, D-glucose vs sucralose: n = 18 pairs; for co-culture pairs responding to this stimulus only / co-culture pairs with excitatory post-synaptic currents in response to only this stimulus: of 18 pairs. The protocol:
(§1) Dissociated vagal neurons were cultured to test whether the neurons are able to sense the different sugars. The neurons were stimulated with three consecutive sugars (D-glucose [20 mM], sucralose [2 mM], and maltodextrin [1%]) followed by KCI [50 mM] as an activity control. […] To determine how individual neuropod cells respond to taste and calorie properties, cultured Cck_tdTomato+ cells were stimulated with the same sugars, counterbalancing for order effect, and calcium activity was recorded using KCI [50 mM] as a final activity control. Of the 49 cells imaged, 18.4% responded to all types of sugar, 36.7% responded to only D-glucose, 20.4% to only maltodextrin, and 12.2% to only sucralose (n = 49 cells, n = 3 mice; FIG. 13). […] Cck_tdTomato+ cells were co-cultured with nodose neurons to determine whether neuropod cells were transducing different sugar stimuli onto the same vagal neurons. Patch-clamp electrophysiology, in voltage-clamp, was used to record neuron activity in response to neuropod cell exposure to D-glucose [20 mM] and sucralose [2 mM] in alternating order (FIG. 14). From the 18 pairs recorded, neuropod cells transduced the sugar stimuli and elicited excitatory post-synaptic currents in connected neurons in response to both stimuli in 6 pairs, to only D-glucose in 8 pairs, and to sucralose alone in 4 pairs (FIG. 14). Thus, neuropod cells are heterogenous in their response and transduction of caloric and non-caloric stimuli to vagal neurons.
On the technique in general: The patch-clamp technique gives a direct electrical read-out from membranes.

Assay [4] has as its system murine small intestinal organoids. As to the kind of experiment: Glutamate release assay on murine small intestinal organoids. To be noted: sucrose 300 mM, α-MGP 150 mM, sucralose 15 mM; PBS control 2.632 ± 1.280. Format: cell-based, mouse. The procedure:
Slc5a1+ Cck-GFP cells express transcripts for the vesicular glutamate transporters Slc17a6, Slc17a7, Slc17a8 and the excitatory neurotransmitter transporters Slc1a1, Slc1a2, and Slc1a3 (FIG. 4). […] A glutamate release assay was performed on murine small intestinal organoids to determine if glutamate release was stimuli specific (FIG. 24-left). α-MGP was used for a caloric stimulus with no sweet taste, because it is not metabolized once it enters the cell and thus allowed for isolation of cell entry. After nutrient stimulation, the glutamate concentration in the supernatant was 2.632 ± 1.280 ng/µL for PBS control, 13.460 ± 1.724 ng/µL for sucrose [300 mM], 18.183 ± 7.904 ng/µL for α-MGP [150 mM], and 6.053 ± 1.169 ng/µL for sucralose [15 mM].

Assay [5] has as its system vagal nodose neurons. As to the kind of experiment: Cultured dissociated vagal neurons stimulated with sugars. Format: cell-based. The settings on record: D-glucose 20 mM; for response of vagal nodose neurons cultured alone: sucralose 2 mM, maltodextrin 1%, n = 59 neurons. The procedure:
as §1

Assay [6] relates to Cck_tdTomato+ cells. As to the kind of experiment: Calcium activity of cultured Cck_tdTomato+ cells stimulated with sugars. Format: cell-based, mice. To be noted: D-glucose 20 mM, sucralose 2 mM, maltodextrin 1%; 49 cells. The protocol:
as §1, with “Thus, neuropod cells are heterogenous in their response and transduction of caloric and non-caloric stimuli to vagal neurons.” left out

Assay [7] concerns enteroendocrine cells and nodose ganglia neurons. The settings on record: 10 mM glucose; cited from earlier work.

For the compound `OC[C@H]1O[C@H](O[C@]2(CCl)O[C@H](CCl)[C@@H](O)[C@@H]2O)[C@H](O)[C@@H](O)[C@H]1Cl` [sucralose], the “vagal response with Cck cells silenced by 532 nm laser” value in assay [1] is reported as “eliminated”. Further, the “vagal response (firing) to intraduodenal sugar vs baseline” value in assay [2] is reported as “responds significantly”. In assay [3], the “peak excitatory post-synaptic currents, D-glucose vs sucralose” value is “not significantly different”; the “co-culture pairs responding to this stimulus only” value came to 22.2%; the “co-culture pairs with excitatory post-synaptic currents in response to only this stimulus” value came to 4 pairs. In assay [4], the “glutamate concentration in the supernatant after stimulation” value came out at 6.053 ± 1.169 ng/µL. Also, in assay [5], the “response of vagal nodose neurons cultured alone” value is reported as “do not respond”. For the same compound, the “cells responding to only this sugar” value in assay [6] is reported as 12.2%.
As for `O=C[C@H](O)[C@@H](O)[C@H](O)[C@H](O)CO` [D-glucose], in assay [7], the “activation of a nodose neuron by itself” value was “did not activate”; the “response of connected neuron to stimulus applied to the enteroendocrine cell” value is “induced excitatory post-synaptic potentials and action potential spikes”. Moreover, the “vagal response (firing) to intraduodenal sugar vs baseline” value in assay [2] is listed as “responds significantly”. Besides, in assay [3], the “peak excitatory post-synaptic currents, D-glucose vs sucralose” value was “not significantly different”; the “co-culture pairs responding to this stimulus only” value is listed as 44.4%; the “co-culture pairs with excitatory post-synaptic currents in response to only this stimulus” value stood at 8 pairs. For the same compound, in assay [5], the “response of vagal nodose neurons cultured alone” value is “do not respond”. Besides, the “neurons with a (small) response” value in assay [5] (59 neurons) was 2 of 59. The “cells responding to only this sugar” value in assay [6] is 36.7%.

Values taken from patent US20230077514A1, “METHODS FOR MODULATING CALORIE CONSUMPTION” (Duke University, priority 2020, published 2023).
